Source: patent US12422427B2, “Compounds for treatment of diseases and methods of screening therefor” (Max-Planck-Gesellschaft zur Förderung der Wissenschaften …, priority 2018, dated 2025)
Entries after “also recorded” stand apart in the source; their conditions may differ.

Key:
[1] = test system: liquid-like non-membrane bound compartments; settings: cited from earlier work
[2] = test system: HeLa cells expressing FUS GFP; assay: HeLa cell compound dose responses (FUS GFP, arsenate stress); assay type: cell-based; settings: 1 h 1 mM arsenate stress
Protocol: Small dilution steps rather than concentration replicates were selected as it provides greater statistical power from a set number of samples. Final DMSO concentration was 0.08% in all samples, and each plate included at least 12 control wells with 0.08% DMSO. Cytoplasmic FUS droplet number and nuclear/cytoplasm partition of FUS were analysed using custom macros in ImageJ. Nuclei were identified by intensity thresholding of the blue fluorescence image following a 5 px Gaussian blur. Cytoplasmic FUS droplets by intensity thresholding of the green image following a 10 px weight 0.9 unsharp filter masked by the thresholded nuclei, and nuclear FUS droplets by intensity thresholding of the green image following a 5 px weight 0.9 unsharp filter and 10 px rolling ball background subtraction masked to only include thresholded nuclei. The ratio of cytoplasmic FUS drops to nuclei was taken as cytoplasmic FUS droplets per cell per field of view, and p, the ratio of partition of FUS to the nucleus and the cytoplasm, was derived from a=Vn/vt, the ratio of nuclear to total green signal per field of view, where p=a/(1−a). […] Six fields of view were captured and analysed per condition.

[3] = test system: HeLa cells expressing FUS GFP; assay: Stress granule formation in HeLa FUS GFP cells under different stresses; assay type: cell-based; settings: 10 μM; mitochondrial (rotenone), hyperosmotic (sorbitol) or arsenate stress
Protocol: The stressor, arsenate, will react with the thiol groups of lipoamide. Therefore, to exclude the possibility that lipoamide is acting only by removing the stressor, so it was further tested whether lipoic acid can prevent stress granule formation triggered by other stresses than arsenate (an oxidative) stress: Mitochondrial electron transport chain inhibition (rotenone), heat stress (42° C.), hyperosmotic stress (sorbitol, a non-metabolisable sugar), glycolysis inhibition ([…] in the absence of glucose) or serum starvation.
Various cellular stresses were achieved by replacing 1 h 1 mM potassium arsenate treatment with other conditions: 100 μM rotenone (R8875, Sigma Aldrich) from a 1 M stock in DMSO for 2 h (mitochondrial stress). […] Sorbitol (S1876, Sigma Aldrich) from a 4 M stock in H2O for 1 h (osmotic stress). 42° C. in normal growth medium for 30 m (heat stress). […] Appropriate solvent controls were used.

PAB-1 = assay: Protein aggregation in C. elegans: PAB-1; assay type: in vivo, Caenorhabditis elegans; settings: liquid culture from L4, scored day 2 of adulthood
Protocol: The effect of lipoic acid on stress granule protein aggregation in vivo was analysed using a C. elegans model for stress granule formation and aggregation. As previously described, fluorescent-tagged PAB-1 forms abundant stress granules and large solid aggregates during aging or upon chronic stress. RHO-1 and KIN-19 also aggregate during aging, but are not RNA binding or stress granule proteins. Three lines were used: Fluorescently tagged PAB-1 (DCD214: N2; uqIs24[pmyo-2::tagrfp::pab 1gene]), KIN-19 (CF3649: N2; muIs 209[pmyo-3::kin-19::tagrfp+ptph-1::GFP] and RHO-1 (DCD13: N2; uqIs9 [pmyo-2::rho-1::tagr fp+ptph-1::gfp]). Each were analysed as below, except DCD13 were maintained at 20° C.
The animals were exposed to lipoic acid in liquid culture in a 96 well plate starting from larval stage L4 in a total volume of 50 μl S-Complete per well (100 mM NaCl, 50 mM Potassium phosphate pH 6, 10 mM potassium citrate, 3 mM MgSO4, 3 mM CaCl2), 5 μg/mL cholesterol, 50 μM ethylenediaminetetraacetic acid (EDTA), 25 μM FeSO4, 10 μM MnCl2, 10 μM ZnSO4, 1 μM CuSO4) supplemented with heat-killed OP50 and 50 μg/ml carbenicillin. […] Toxicity was evaluated from the number of dead or aberrantly small-sized animals.
48 h after switching the L4s from 20° C. to 25° C. […] After immobilization with 2 mM levamisole aggregation was scored using a fluorescent stereo microscope (Leica M165 FC, Plan Apo 2.0× objective). […]

[4] = test system: EWSR1, TIAL1, PABPC1, G3BP1; assay: Panel of HeLa lines expressing GFP-labelled stress granule proteins, arsenate stress; assay type: cell-based; settings: 1 mM arsenate, 10 μM compound
Protocol: It was anticipated that a useful therapeutic would prevent all PLD-containing stress granule proteins from localising to stress granules. The inventors used 1 mM arsenate to stress a panel of HeLa cell lines expressing GFP fusions of stress granule proteins (EWSR1, TIAL1, PABPC1, G3BP1) with either no treatment or 10 μM lipoic acid or lipoamide.
Compound effects were assessed under a variety of conditions in HeLa or iPS cells expressing wild-type or P525L FUS GFP by live cell imaging. Different combinations of 1 h pre-treatment compound or pre-stress with arsenate followed by 1 h treatment with compound and/or stress with arsenate. Unless otherwise indicated, cells were pre-treated for 1 h using 10 μM compound from 10 mM stock in DMSO (or an equal volume of DMSO control) then stressed for 1 h with 1 mM potassium arsenate still in the presence of compound. GFP fluorescence was imaged by widefield epifluorescence using an inverted Olympus IX71 microscope with an Olympus 100× NA 1.4 Plan Apo oil immersion objective and a CoolSNAP HQ CCD camera (Photometrics), using a DeltaVision climate control unit (37° C., 5% CO2) (Applied Precision). The kinetics of pre-stress followed by treatment was analysed from images captured at 2 min intervals for 100 min, for single time points images were captured after 1 h unless otherwise indicated.

| Compound | concentrations required for in vitro or cellular activity [1] | toxicity at active concentrations [1] | EC50 reducing stress granule number, compared among compounds [2] | stress granule formation [3] | proportion of animals with aggregation of PAB-1 (PAB-1) | localisation of EWSR1, TIAL1, PABPC1, G3BP1 GFP to stress granules [4] |
| --- | --- | --- | --- | --- | --- | --- |
| OCCCCCCO [1,6-hexanediol] | 1-10% | rapidly toxic | – | – | – | – |
| O=C(O)CCCC[C@@H]1CCSS1 [R-(+)-lipoic acid] | – | – | comparable EC50 | reduced stress granule formation | dose-dependent decrease; also recorded: strong dose-dependent reduction | localised to stress granules in the absence of treatment, and not in the presence |
| S-(−)-lipoic acid | – | – | comparable EC50; also recorded: very similar activity | reduced stress granule formation | dose-dependent decrease; also recorded: strong dose-dependent reduction | localised to stress granules in the absence of treatment, and not in the presence |
